{"source": "patent US20220153766A1", "about": "“CONDENSED TRICYCLIC COMPOUND USED AS KINASE INHIBITOR” (Hangzhou Innogate Pharma Co., Ltd., priority 2019, published 2022)", "key": {"[1]": {"assay": "Pharmacokinetic study in rats after intragastrical administration", "assay_type": "in vivo", "details": "male, rat, plasma, po, SD rats, 3 mg/kg"}, "ALK": {"molecular_target": "ALK (Homo sapiens, UniProt Q9UM73)", "sequence (Q9UM73 19-1620)": "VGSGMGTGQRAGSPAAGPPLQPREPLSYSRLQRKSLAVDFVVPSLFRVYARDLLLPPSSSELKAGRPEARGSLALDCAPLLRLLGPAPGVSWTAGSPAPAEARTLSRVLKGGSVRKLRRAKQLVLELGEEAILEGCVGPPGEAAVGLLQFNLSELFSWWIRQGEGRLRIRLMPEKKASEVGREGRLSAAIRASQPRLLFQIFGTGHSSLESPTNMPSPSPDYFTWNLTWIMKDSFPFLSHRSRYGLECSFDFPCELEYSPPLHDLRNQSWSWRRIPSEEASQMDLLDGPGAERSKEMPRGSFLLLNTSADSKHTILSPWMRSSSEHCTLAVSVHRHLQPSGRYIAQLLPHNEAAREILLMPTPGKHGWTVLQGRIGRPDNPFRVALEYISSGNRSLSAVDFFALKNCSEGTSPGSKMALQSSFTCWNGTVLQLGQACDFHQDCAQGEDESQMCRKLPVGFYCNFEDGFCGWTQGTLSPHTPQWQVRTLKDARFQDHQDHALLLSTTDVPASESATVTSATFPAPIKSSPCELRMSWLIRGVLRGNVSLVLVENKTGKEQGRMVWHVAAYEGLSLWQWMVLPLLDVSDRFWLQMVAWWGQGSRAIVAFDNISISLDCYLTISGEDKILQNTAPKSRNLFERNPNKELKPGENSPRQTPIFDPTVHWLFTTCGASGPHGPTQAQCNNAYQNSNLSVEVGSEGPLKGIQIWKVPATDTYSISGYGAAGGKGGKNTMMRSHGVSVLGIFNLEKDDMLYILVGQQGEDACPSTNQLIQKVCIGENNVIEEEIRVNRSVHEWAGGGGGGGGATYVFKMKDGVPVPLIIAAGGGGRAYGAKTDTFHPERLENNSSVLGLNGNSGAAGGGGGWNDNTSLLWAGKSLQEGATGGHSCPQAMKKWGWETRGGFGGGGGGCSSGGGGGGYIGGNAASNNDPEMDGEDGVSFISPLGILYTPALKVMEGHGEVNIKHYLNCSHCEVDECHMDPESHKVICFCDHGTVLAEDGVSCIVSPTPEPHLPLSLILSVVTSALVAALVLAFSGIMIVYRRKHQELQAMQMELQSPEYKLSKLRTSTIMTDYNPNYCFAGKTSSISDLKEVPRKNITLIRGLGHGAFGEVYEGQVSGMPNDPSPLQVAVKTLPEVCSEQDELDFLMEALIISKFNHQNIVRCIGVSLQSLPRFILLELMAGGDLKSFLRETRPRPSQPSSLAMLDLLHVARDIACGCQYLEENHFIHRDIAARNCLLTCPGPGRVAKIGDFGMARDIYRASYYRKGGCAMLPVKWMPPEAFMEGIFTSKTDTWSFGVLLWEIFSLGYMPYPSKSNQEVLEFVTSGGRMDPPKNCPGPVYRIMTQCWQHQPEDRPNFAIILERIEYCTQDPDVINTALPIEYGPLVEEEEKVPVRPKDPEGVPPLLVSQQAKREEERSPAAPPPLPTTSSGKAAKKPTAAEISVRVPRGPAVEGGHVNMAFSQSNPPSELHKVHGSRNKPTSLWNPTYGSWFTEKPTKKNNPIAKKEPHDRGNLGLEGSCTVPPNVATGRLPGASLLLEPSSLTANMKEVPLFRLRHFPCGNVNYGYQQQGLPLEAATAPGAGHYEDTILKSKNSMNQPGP", "assay": "ALK kinase activity inhibition, Caliper mobility shift assay, method 2", "assay_type": "biochemical", "details": "ALK 1.25 nM, ATP 30 μM", "protocol": "2. ALK Kinase Activity Inhibition Experiment:\nMethod 2: Caliper mobility shift assay was used to measure ALK protein kinase activity. The method is basically the same as method 1, with individual parameters adjusted. The initial concentration of the compound is 1 mM, and sequentially diluted 4-fold to make 6 points (7 points for some individual compounds). Use a dispenser Echo 550 to transfer 250 nL of 100-fold final concentration of the compound to the target plate 3573, add 10 μL ALK with final concentration of 1.25 nM, incubate at room temperature for 10 minutes (the negative control well contains 10 μL kinase buffer and 250 nL 100% DMSO; the positive control well contains 10 μL kinase solution and 250 nL 100% DMSO). On the kinase ALK, add 15 μL of ATP with a final concentration of 30 μM and 3 μM of the substrate peptide No. 22 mixed solution to react for 25 minutes; add 30 μL of stop detection solution containing EDTA to stop the kinase reaction. Use Caliper EZ Reader to read the conversion rate. Inhibition rate %=(Average positive control conversion rate %−Sample conversion rate %/(Average positive control conversion rate %−Average negative control conversion rate %). Among them: negative control wells represent the conversion rate readings without enzyme activity; positive control wells represent the conversion rate readings of wells without compound inhibition. Take the log value of the concentration as the X-axis, and the percentage inhibition rate on the Y-axis. Log (inhibitor) vs. response—Variable slope of analysis software GraphPad Prism 5 was used to fit the curve to obtain the IC50 value of each compound on the enzyme activity. Calculation formula: Y=Bottom+(Top−Bottom)/(1+10^((Log IC50−X)*HillSlope))."}}, "data": [{"smiles": "Cc1cc(Nc2ncc(Cl)c(Nc3ccccc3P(C)(C)=O)n2)cc2c1N1CCN(C3CCN(C)CC3)C[C@@H]1CO2", "note": "[Compound 27R]", "values": [{"measurement": "Cmax", "setting": "[1]", "result": 196, "unit": "ng/mL"}, {"measurement": "Tmax", "setting": "[1]", "result": 5.33, "unit": "h"}, {"measurement": "half-life", "setting": "[1]", "result": 5.17, "unit": "h"}, {"measurement": "AUC(0-t)", "setting": "[1]; read-out: AUC0-24 h", "result": 2750, "unit": "ng·h/mL"}, {"measurement": "IC50", "setting": "ALK", "result": "1 to 50", "unit": "nM"}]}]}
